Assay results taken from patent publication US6518243B1, “Desleucyl glycopeptide antibiotics and methods of making same” (Trustees of Princeton University, priority 1999, dated 2003).

Key:
[1] = test system: E. faceium (ATCC 49624); test: Zone of inhibition screen, 96 well agar array format;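 note: score 3 means fourfold and score 4 sixteenfold the reference zone size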; assay type: cell-based, E. faecium; conditions: zone of inhibition relative to 1 mg/ml stock solution of p-chlorobiphenylvancomycin
Protocol: The antibacterial activity of each of the compounds against the bacterial strains E. faceium (ATCC 49624), S. epidermidis (ATCC 12228), S. aureus (ATCC 29213), E. faecalis (CL 4877) and E. faecalis (ATCC 292121) was tested. Each of the compounds was screened in a 96 will agar array format.

[2] = test system: S. epidermidis (ATCC 12228); test: as above; assay type: cell-based; parameters: scale not given here; conditions: zone of inhibition relative to 1 mg/ml stock solution of p-chlorobiphenylvancomycin
Procedure, shortened: (§1)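 Panel screening of every compound against several bacterial strains, among them E. faecium ATCC 49624, was done in a 96-well agar array.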

[3] = test system: E. faecalis (CL 4877); test: as above; assay type: cell-based; parameters: scale not given here; conditions: zone of inhibition relative to 1 mg/ml stock solution of p-chlorobiphenylvancomycin
Procedure, shortened: as §1

[4] = test system: S. Aureus ATCC 33591; test: MIC determination in BHI media, OD600; assay type: cell-based; conditions: BHI + 0.1% casamino acids, 18 hours at 37° C., ≧90% OD600 inhibition
Protocol: (§2) Logarithmically growing cells were diluted to approximately 5×10^5 CFU/ml and subjected to test compounds solubilized and serially diluted in DMSO. […] After 18 hours at 37° C., the OD600 was determined by reading the ninety-six well microtiter plates on a microplate reader. For a given concentration, an MIC determination was made if: […]

[5] = test system: E. faecium CL 4931; test: MIC determination in BHI media, OD600; assay type: cell-based; conditions: BHI + 0.1% casamino acids, 18 hours at 37° C., ≧90% OD600 inhibition
Protocol: as §2

[6] = test system: S aureus ATCC 29213; test: MIC determination in BHI media, OD600; assay type: cell-based; conditions: BHI + 0.1% casamino acids, 18 hours at 37° C., ≧90% OD600 inhibition
Protocol: as §2

[7] = test system: S. aureus (ATCC 29213); test: Zone of inhibition screen, 96 well agar array format; assay type: cell-based; parameters: scale not given here; conditions: zone of inhibition relative to 1 mg/ml stock solution of p-chlorobiphenylvancomycin
Procedure, shortened: as §1

[8] = test system: E. faecium ATCC 49624; test: MIC determination in BHI media, OD600; assay type: cell-based; conditions: BHI + 0.1% casamino acids, 18 hours at 37° C., ≧90% OD600 inhibition
Protocol: as §2

SMILES	zone score, E. faecium ATCC 49624 [1]	zone score, S. epidermidis ATCC 12228 [2]	zone score, E. faecalis CL 4877 [3]	MIC S. aureus ATCC 33591 [4] [µg/mL]	MIC E. faecium CL 4931 [5] [µg/mL]	MIC S. aureus ATCC 29213 [6] [µg/mL]	zone score, S. aureus ATCC 29213 [7]	MIC E. faecium ATCC 49624 [8] [µg/mL]
CC1OC(OC2C(Oc3c4cc5cc3Oc3ccc(cc3Cl)C(O)C3NC(=O)C(NC(=O)C5NC(=O)C(CC(N)=O)NC(=O)C(NC(=O)CC(O)C[N+](C)(C)C)C(O)c5ccc(c(Cl)c5)O4)c4ccc(O)c(c4)-c4c(O)cc(O)cc4C(C(=O)O)NC3=O)OC(CO)C(O)C2O)CC(C)(NCc2ccc(-c3ccc(Cl)cc3)cc2)C1O (mixture of isomers) [Compound 151]	2	2	2	–	–	–	–	–
C[C@H]1O[C@H](O[C@H]2[C@H](Oc3c4cc5cc3Oc3ccc(cc3Cl)[C@@H](O)[C@@H](NC(=O)[C@@H](N)CCC(=O)OCc3ccccc3)C(=O)N[C@@H](CC(N)=O)C(=O)N[C@H]5C(=O)N[C@H]3C(=O)N[C@H](C(=O)N[C@@H](C(=O)O)c5cc(O)cc(O)c5-c5cc3ccc5O)[C@H](O)c3ccc(c(Cl)c3)O4)O[C@H](CO)[C@@H](O)[C@@H]2O)C[C@@](C)(NCc2ccc(-c3ccc(Cl)cc3)cc2)[C@H]1O [Compound 26]	–	–	2	0.78	> 25	0.78	2	–
CC(C)CC(N)C(=O)NC1C(=O)NC(CC(N)=O)C(=O)NC2C(=O)NC3C(=O)NC(C(=O)NC(C(=O)O)c4cc(O)cc(O)c4-c4cc3ccc4O)C(O)c3ccc(c(Cl)c3)Oc3cc2cc(c3OC2OC(CO)C(O)C(O)C2OC2CC(C)(NCc3ccc(-c4ccc(Cl)cc4)cc3)C(O)C(C)O2)Oc2ccc(cc2Cl)C1O (centres unmarked) [Compound 38]	2	–	–	0.78	–	0.78	2	0.78
CC1OC(OC2C(Oc3c4cc5cc3Oc3ccc(cc3Cl)C(O)C3NC(=O)C(NC(=O)C5NC(=O)C(CC(N)=O)NC(=O)C(NC(=O)C(N)CO)C(O)c5ccc(c(Cl)c5)O4)c4ccc(O)c(c4)-c4c(O)cc(O)cc4C(C(=O)O)NC3=O)OC(CO)C(O)C2O)CC(C)(NCc2ccc(-c3ccc(Cl)cc3)cc2)C1O (centres unmarked) [Compound 63]	–	–	2	0.78	25	0.78	2	0.78
CC1OC(OC2C(Oc3c4cc5cc3Oc3ccc(cc3Cl)C(O)C3NC(=O)C(NC(=O)C5NC(=O)C(CC(N)=O)NC(=O)C(NC(=O)CNC(=O)CN)C(O)c5ccc(c(Cl)c5)O4)c4ccc(O)c(c4)-c4c(O)cc(O)cc4C(C(=O)O)NC3=O)OC(CO)C(O)C2O)CC(C)(NCc2ccc(-c3ccc(Cl)cc3)cc2)C1O (centres unmarked) [Compound 68]	2	–	–	0.78	–	0.78	–	0.39
CC1OC(OC2C(Oc3c4cc5cc3Oc3ccc(cc3Cl)C(O)C3NC(=O)C(NC(=O)C5NC(=O)C(CC(N)=O)NC(=O)C(NC(=O)C5CC(O)CN5)C(O)c5ccc(c(Cl)c5)O4)c4ccc(O)c(c4)-c4c(O)cc(O)cc4C(C(=O)O)NC3=O)OC(CO)C(O)C2O)CC(C)(NCc2ccc(-c3ccc(Cl)cc3)cc2)C1O (centres unmarked) [Compound 72]	2	2	2	–	–	–	–	–
CC(=O)NCSC(C)(C)C(N)C(=O)NC1C(=O)NC(CC(N)=O)C(=O)NC2C(=O)NC3C(=O)NC(C(=O)NC(C(=O)O)c4cc(O)cc(O)c4-c4cc3ccc4O)C(O)c3ccc(c(Cl)c3)Oc3cc2cc(c3OC2OC(CO)C(O)C(O)C2OC2CC(C)(NCc3ccc(-c4ccc(Cl)cc4)cc3)C(O)C(C)O2)Oc2ccc(cc2Cl)C1O (centres unmarked) [Compound 84]	2	2	–	–	–	–	2	–
CC1OC(OC2C(Oc3c4cc5cc3Oc3ccc(cc3Cl)C(O)C3NC(=O)C(NC(=O)C5NC(=O)C(CC(N)=O)NC(=O)C(NC(=O)CNC(=O)C5CCCN5)C(O)c5ccc(c(Cl)c5)O4)c4ccc(O)c(c4)-c4c(O)cc(O)cc4C(C(=O)O)NC3=O)OC(CO)C(O)C2O)CC(C)(NCc2ccc(-c3ccc(Cl)cc3)cc2)C1O (centres unmarked) [Compound 85]	2	2	2	–	–	–	2	–
CC1OC(OC2C(Oc3c4cc5cc3Oc3ccc(cc3Cl)C(O)C3NC(=O)C(NC(=O)C5NC(=O)C(CC(N)=O)NC(=O)C(NC(=O)C(N)CCC(N)=O)C(O)c5ccc(c(Cl)c5)O4)c4ccc(O)c(c4)-c4c(O)cc(O)cc4C(C(=O)O)NC3=O)OC(CO)C(O)C2O)CC(C)(NCc2ccc(-c3ccc(Cl)cc3)cc2)C1O (centres unmarked) [Compound 91]	–	2	–	0.78	25	0.78	–	0.78
